The values that follow come from the OPERA property sets (Mansouri et al. 2018).

As a reminder, the melting point is the temperature, or range, at which the solid turns liquid. The term boiling point denotes the temperature at which the vapour pressure of the liquid equals the pressure above it.

Conditions in one data set: not given
Turning to `CN1[C@@H](CC(=O)c2ccccc2)CCC[C@H]1C[C@H](O)c1ccccc1`, the melting point amounted to 130 °C.
The same measure, in the same setting: the result for `CCCCCCCCCCOC(=O)CCCCCCCCC` reads 9.7 °C.
For the molecule `CCCS`, the boiling point is 67.8 °C, the log10 Henry constant (atm·m³/mol) was -2.39, the log10 vapour pressure (mmHg) turned out to be 2.19 and the melting point is -113 °C.
`C[C@H]1[C@H](C)CC[C@]2(C(=O)O)CC[C@]3(C)C(=CC[C@@H]4[C@@]5(C)CC[C@H](O)C(C)(C)[C@@H]5CC[C@]43C)[C@H]12`: the melting point was 284 °C.
Still for that read-out and setting: the result for `CCCCCCN1CCCC1=O` reads 4 °C.
For the molecule `OCCN(CCO)c1nc(N2CCCCC2)c2nc(N(CCO)CCO)nc(N3CCCCC3)c2n1`, the melting point amounted to 163 °C.
Still for that read-out and setting: the same measure for `NNC(=O)c1ccc(Br)cc1`: 166 °C.
The same measure, in the same setting: the result for `CCOC(=O)NC(N)=O` reads 196 °C.
The molecule `CCCCC(CC)COC(=O)/C=C/C(=O)OCC(CC)CCCC` (stereo unspecified) displayed a boiling point of 300 °C and a melting point of -10 °C.
Turning to `CNC(=O)Nc1ccc(Cl)c(Cl)c1`, the log10 Koc (L/kg) was determined as 2.46.
As for `Oc1c(Cl)c(Cl)cc(Cl)c1Cl`, the melting point stood at 115 °C.
On the same count and under the same terms, the same measure for `NCCS`: 98 °C.
`c1cc(OCC2CO2)cc(OCC2CO2)c1` (stereo unspecified): the melting point turned out to be 42.5 °C.
The molecule `Cc1cccc(C(C)(C)C)c1` registered a boiling point of 189 °C and a melting point of -41.4 °C.
The molecule `C[C@H]1CC[C@@H]2[C@H](C1)C2(C)C` had a boiling point of 169 °C.
As for `O=[N+]([O-])c1cc[n+]([O-])c2ccccc12`, the melting point is 154 °C.
Regarding `OCc1ccco1`, the boiling point is 171 °C, the log10 vapour pressure (mmHg) is -0.215, the melting point was -14.6 °C and the ready biodegradability entry is “readily biodegradable”.
The molecule `O=C1C=C2C(=CCOC2O)O1` (stereo unspecified) yielded a melting point of 111 °C.
`Cc1cc[nH]c1` returned a boiling point of 143 °C and a melting point of -48.4 °C.
The molecule `COc1c(OC)c(OC(C)=O)c2cc(Cl)ccc2c1OC(C)=O` yielded a melting point of 91.5 °C.
The same measure, in the same setting: the result for `Cc1cccc(C)c1NC(=O)C1CCCCN1C` (stereo unspecified) reads 150 °C.
`N#Cc1ccccc1C(F)(F)F` returned a boiling point of 205 °C and a melting point of 18 °C.
Molecule `CN(C)c1nc(=O)n(C2CCCCC2)c(=O)n1C` displayed a log10 Koc (L/kg) of 1.73, a log10 vapour pressure (mmHg) of -6.65 and a melting point of 116 °C.
As for `CC(=O)NC(=O)c1ccccc1O`, the melting point stood at 148 °C.
Same read-out and setting: the same measure for `CO[C@H](C(=O)[C@@H](O)[C@@H](C)O)C1Cc2cc3cc(O[C@H]4C[C@@H](O[C@H]5C[C@@H](O)[C@H](O)[C@@H](C)O5)[C@@H](O)[C@@H](C)O4)c(C)c(O)c3c(O)c2C(=O)[C@H]1O[C@H]1C[C@@H](O[C@H]2C[C@@H](O[C@H]3C[C@](C)(O)[C@H](O)[C@@H](C)O3)[C@H](O)[C@@H](C)O2)[C@H](O)[C@@H](C)O1` (stereo partly specified): 182 °C.
Molecule `CC(C)CC1CCCCC1` showed a boiling point of 171 °C, a log10 vapour pressure (mmHg) of 0.684 and a melting point of -95 °C.
As for `N#C[S-].[Na+]`, the melting point was determined as 287 °C.
On the same count and under the same terms, the same measure for `COc1ccc2c(c1OC)CN(C)CCc1cc3c(cc1C(=O)C2)OCO3`: 160 °C.
On the same count and under the same terms, the same measure for `Cc1cc2nc3c(=O)[nH]c(=O)nc-3n(C)c2cc1C`: 320 °C.
Same read-out and setting: the result for `CC[C@@H](CO)NC(=O)[C@@H]1C=C2c3cccc4[nH]cc(c34)C[C@H]2N(C)C1` reads 172 °C.
For `COP(=S)(OC)SCc1nc(N)nc(N)n1`, the log10 vapour pressure (mmHg) was -6.01, the melting point was 165 °C and the ready biodegradability result is “not readily biodegradable”.
As to `CN(C)CC/C=C1\c2ccccc2Sc2ccc(Cl)cc21`, the melting point amounted to 97.5 °C.
Take `O=C(O)Cc1ccco1`: the melting point amounted to 68.5 °C.
With `S=C(Nc1cccc2ccccc12)Nc1cccc2ccccc12`, the melting point was determined as 208 °C.
Consider `O=C1c2ccccc2C(=O)c2cc(Cl)ccc21`, for which the melting point came to 211 °C and the ready biodegradability result is reported as “not readily biodegradable”.
Molecule `O=S(=O)(F)c1ccccc1` returned a boiling point of 204 °C.
`CN(C)C(C)(C)CO` returned a boiling point of 160 °C and a melting point of 19 °C.

The same data set, now with this note: […].
`C=C/C(C)=C\CC=C(C)C`: the log10 OH rate constant (cm³/molecule/s) is -9.6.

Staying with this data set, now noted: fish.
`Oc1c(Cl)c(Cl)cc(Cl)c1Cl`: the log10 BCF is 2.15 and the log10 biotransformation half-life (days) is -0.1.
In the case of `CC(C)CC1CCCCC1`, the log10 biotransformation half-life (days) amounted to 0.91.
In turn, `O=C1c2ccccc2C(=O)c2cc(Cl)ccc21` registered a log10 BCF of 2.28 and a log10 biotransformation half-life (days) of -0.36.
